{"source": "patent US20030013099A1", "about": "“Genes regulated by DNA methylation in colon tumors” (priority 2001, published 2003)", "key": {"[1]": {"test_system": "HCT116 cells", "assay": "microarray differential expression, HCT116 cells treated with 500 nM Aza", "type": "cell-based, human", "settings": "vs untreated, log base 2, negative = upregulation", "method": "HT29 cells were derived from a Grade II adenocarcinoma of the colon obtained from a person. HCT116 cells are a subpopulation of malignant cells isolated from a primary cell culture of a single human colonic carcinoma (Brattain et al. (1981) Cancer Res 41:1751-6). HMEC cells are a primary human epithelial cell line derived from the breast tissue of a normal donor. HT29 and HCT116 colorectal carcinoma cells (American Type Culture Collection, Manassas Va.) were cultured in McCoy's medium supplemented with 10% fetal bovine serum (Invitrogen) at 37° C. and 5% CO2. Treated cells were exposed to 500 nM 5-aza-2-deoxycytidine (Aza; Sigma-Aldrich) 24 hours after passage in complete culture medium. Control cultures were treated in parallel with phosphate buffered saline vehicle. After twenty-four hours, culture medium was replaced with drug-free medium. Control and Aza-treated cells were subcultured at equal densities at 1 and 5 days after the initial treatment, and proliferation was measured at the subsequent time point using a Coulter counter (Beckman Coulter, Fullerton Calif.). Cells were harvested 5 days after the initial treatment.\nCells were harvested and lysed in 1 ml of TRIZOL reagent (5×10^6 cells/ml; Invitrogen). The lysates were vortexed thoroughly and incubated at room temperature for 2-3 minutes and extracted with 0.5 ml chloroform. The extract was mixed, incubated at room temperature for 5 minutes, and centrifuged at 16,000× g for 15 minutes at 4° C. The aqueous layer was collected, and an equal volume of isopropanol was added. Samples were mixed, incubated at room temperature for 10 minutes, and centrifuged at 16,000× g for 20 minutes at 4° C. The supernatant was removed, and the RNA pellet was washed with 1 ml of 70% ethanol, centrifuged at 16,000× g at 4° C., and resuspended in RNAse-free water. The concentration of the RNA was determined by measuring the optical density at 260 nm.\nPoly(A) RNA was prepared using an OLIGOTEX mRNA kit (Qiagen) with the following modifications: OLIGOTEX beads were washed in tubes instead of on spin columns, resuspended in elution buffer, and then loaded onto spin columns to recover mRNA. To obtain maximum yield, the mRNA was eluted twice.\nEach poly(A) RNA sample was reverse transcribed using MMLV reverse-transcriptase, 0.05 pg/μl oligo-d(T) primer (21mer), 1× first strand buffer, 0.03 units/ul RNAse inhibitor, 500 uM dAT?, 500 uM dGTP, 500 uM dTTP, 40 uM dCTP, and 40 uM either dCTP-Cy3 or dCTP-Cy5 (APB). The reverse transcription reaction was performed in a […] volume containing 200 ng poly(A) RNA using the GEMBRIGHT kit (Incyte Genomics). Specific control poly(A) RNAs (YCFRO6, YCFR45, YCFR67, YCFR85, YCFR43, YCFR22, YCFR23, YCFR25, YCFR44, YCFR26) were synthesized by in vitro transcription from non-coding yeast genomic DNA (W. Lei, unpublished). As quantitative controls, control mRNAs (YCFRO6, YCFR45, YCFR67, and YCFR85) at 0.002 ng, 0.02 ng, 0.2 ng, and 2 ng were diluted into reverse transcription reaction at ratios of 1:100,000, 1:10,000, 1:1000, 1:100 (w/w) to sample mRNA, respectively. To sample differential expression patterns, control mRNAs (YCFR43, YCFR22, YCFR23, YCFR25, YCFR44, YCFR26) were diluted into reverse transcription reaction at ratios of 1:3, 3:1, 1:10, 10:1, 1:25, 25:1 (w/w) to sample mRNA. Reactions were incubated at 37° C. for 2 hours, treated with […] of 0.5M sodium hydroxide, and incubated for 20 minutes at 85° C. to the stop the reaction and degrade the RNA.\ncDNAs were purified using two successive CHROMA SPIN 30 gel filtration spin columns (Clontech). Cy3- and Cy5-labeled reaction samples were combined as described below and ethanol precipitated using […] of 100% ethanol. The cDNAs were then dried to completion using a SpeedVAC system (Savant Instruments, Holbrook N.Y.) and resuspended in 14 μl 5× SSC, 0.2% SDS. […]"}, "[2]": {"test_system": "MIN mouse", "settings": "Aza treatment in combination with a genetic reduction in DNA methyltransferase I activity; cited from earlier work"}}}
{"smiles": "Nc1ncn([C@H]2C[C@H](O)[C@@H](CO)O2)c(=O)n1", "note": "[Aza, 5-aza-2-deoxycytidine]", "values": [{"measurement": "differential expression, Clone ID 2416222, HCT116 t/Aza (5d)", "setting": "[1]; SEQ ID NO:1 hypothetical protein", "result": "−1.72"}, {"measurement": "differential expression, Clone ID 4103545, HCT116 t/Aza (5d)", "setting": "[1]; SEQ ID NO:2 Incyte Unique", "result": "−1.35"}, {"measurement": "differential expression, Clone ID 322569, HCT116 t/Aza (5d)", "setting": "[1]; SEQ ID NO:3 interferon-inducible protein", "result": "−1.17"}, {"measurement": "differential expression, Clone ID 5322134, HCT116 t/Aza (5d)", "setting": "[1]; SEQ ID NO:5 chromosome 6p21.3, HLA Class I region", "result": "−1.72"}, {"measurement": "differential expression, Clone ID 1698458, HCT116 t/Aza (5d)", "setting": "[1]; SEQ ID NO:6 unnamed protein product", "result": "−1.32"}, {"measurement": "differential expression, Clone ID 1871523, HCT116 t/Aza (5d)", "setting": "[1]; SEQ ID NO:7 KIAA1046 protein", "result": "−0.85"}, {"measurement": "differential expression, Clone ID 6024084, HCT116 t/Aza (5d)", "setting": "[1]; SEQ ID NO:8 putative tumor antigen", "result": "−2.66"}, {"measurement": "differential expression, Clone ID 3810006, HCT116 t/Aza (5d)", "setting": "[1]; SEQ ID NO:9 Incyte Unique", "result": "−0.85"}, {"measurement": "differential expression, Clone ID 4508879, HCT116 t/Aza (5d)", "setting": "[1]; SEQ ID NO:10 Incyte Unique", "result": "−0.89"}, {"measurement": "differential expression, Clone ID 4225379, HCT116 t/Aza (5d)", "setting": "[1]; SEQ ID NO:11 U 6 RNA", "result": "−0.89"}, {"measurement": "differential expression, Clone ID 3463713, HCT116 t/Aza (5d)", "setting": "[1]; SEQ ID NO:12 cDNA clone ZD16H10", "result": "−1.46"}, {"measurement": "differential expression, Clone ID 2998017, HCT116 t/Aza (5d)", "setting": "[1]; SEQ ID NO:13, 14 T-cell receptor gamma", "result": "−1.23"}, {"measurement": "differential expression, Clone ID 4318273, HCT116 t/Aza (5d)", "setting": "[1]; SEQ ID NO:15 pTR5 repetitive sequence", "result": "−1.07"}, {"measurement": "differential expression, Clone ID 1649414, HCT116 t/Aza (5d)", "setting": "[1]; SEQ ID NO:16 Hep27 protein", "result": "−1.00"}, {"measurement": "differential expression, Clone ID 1684742, HCT116 t/Aza (5d)", "setting": "[1]; SEQ ID NO:18 cDNA FLJ20222", "result": "−0.89"}, {"measurement": "differential expression, Clone ID 2825816, HCT116 t/Aza (5d)", "setting": "[1]; SEQ ID NO:19 KIAA0412", "result": "−0.89"}, {"measurement": "differential expression, Clone ID 2440943, HCT116 t/Aza (5d)", "setting": "[1]; SEQ ID NO:21 Incyte Unique", "result": "−1.00"}, {"measurement": "differential expression, Clone ID 1294339, HCT116 t/Aza (5d)", "setting": "[1]; SEQ ID NO:22 PDGF-B", "result": "−0.89"}, {"measurement": "differential expression, Clone ID 5104741, HCT116 t/Aza (5d)", "setting": "[1]; SEQ ID NO:23 cDNA FLJ10570", "result": "−1.23"}, {"measurement": "differential expression, Clone ID 1855389, HCT116 t/Aza (5d)", "setting": "[1]; SEQ ID NO:24 pTR7 repetitive sequence", "result": "−1.51"}, {"measurement": "differential expression, Clone ID 5207613, HCT116 t/Aza (5d)", "setting": "[1]; SEQ ID NO:25 chromosome 21 segment HS21C049", "result": "−1.67"}, {"measurement": "differential expression, Clone ID 3207902, HCT116 t/Aza (5d)", "setting": "[1]; SEQ ID NO:26 hypothetical protein", "result": "−0.89"}, {"measurement": "differential expression, Clone ID 4999769, HCT116 t/Aza (5d)", "setting": "[1]; SEQ ID NO:27 ZNFpT17", "result": "−1.09"}, {"measurement": "differential expression, Clone ID 408886, HCT116 t/Aza (5d)", "setting": "[1]; SEQ ID NO:28 transketolase", "result": "−2.32"}, {"measurement": "differential expression, Clone ID 4764233, HCT116 t/Aza (5d)", "setting": "[1]; SEQ ID NO:30 GAGE-8", "result": "−1.79"}, {"measurement": "differential expression, Clone ID 2511379, HCT116 t/Aza (5d)", "setting": "[1]; SEQ ID NO:31 GAGE-7B", "result": "−1.34"}, {"measurement": "differential expression, Clone ID 2471817, HCT116 t/Aza (5d)", "setting": "[1]; SEQ ID NO:33 cDNA clone YU62C03", "result": "−0.89"}, {"measurement": "differential expression, Clone ID 3333736, HCT116 t/Aza (5d)", "setting": "[1]; SEQ ID NO:34 MAGE-11 antigen", "result": "−1.38"}, {"measurement": "differential expression, Clone ID 1304365, HCT116 t/Aza (5d)", "setting": "[1]; SEQ ID NO:35 GAGE-8", "result": "−1.78"}, {"measurement": "differential expression, Clone ID 2657056, HCT116 t/Aza (5d)", "setting": "[1]; SEQ ID NO:37, 38 MAGE-4b antigen", "result": "−1.58"}, {"measurement": "differential expression, Clone ID 2507719, HCT116 t/Aza (5d)", "setting": "[1]; SEQ ID NO:39 MAGE-9 antigen", "result": "−1.70"}, {"measurement": "differential expression, Clone ID 4688, HCT116 t/Aza (5d)", "setting": "[1]; SEQ ID NO:41 MAGE-1", "result": "−1.14"}, {"measurement": "differential expression, Clone ID 2068708, HCT116 t/Aza (5d)", "setting": "[1]; SEQ ID NO:42 HM74", "result": "−0.46"}, {"measurement": "differential expression, Clone ID 23770, HCT116 t/Aza (5d)", "setting": "[1]; SEQ ID NO:43 1-8D", "result": "−0.72"}, {"measurement": "differential expression, Clone ID 1616783, HCT116 t/Aza (5d)", "setting": "[1]; SEQ ID NO:45 Incyte Unique", "result": "−0.80"}, {"measurement": "differential expression, Clone ID 820942, HCT116 t/Aza (5d)", "setting": "[1]; SEQ ID NO:46 cDNA FLJ20120", "result": "−0.26"}, {"measurement": "differential expression, Clone ID 891322, HCT116 t/Aza (5d)", "setting": "[1]; SEQ ID NO:47 Incyte Unique", "result": "−0.58"}, {"measurement": "differential expression, Clone ID 2755836, HCT116 t/Aza (5d)", "setting": "[1]; SEQ ID NO:48 U5 A RNA", "result": "−0.58"}, {"measurement": "differential expression, Clone ID 1227521, HCT116 t/Aza (5d)", "setting": "[1]; SEQ ID NO:49 phospholipid scramblase 1", "result": "−0.58"}, {"measurement": "differential expression, Clone ID 2200842, HCT116 t/Aza (5d)", "setting": "[1]; SEQ ID NO:50 retinoid inducible gene 1", "result": 0.00}, {"measurement": "differential expression, Clone ID 2238363, HCT116 t/Aza (5d)", "setting": "[1]; SEQ ID NO:51 interferon induced", "result": "−0.24"}, {"measurement": "differential expression, Clone ID 1495382, HCT116 t/Aza (5d)", "setting": "[1]; SEQ ID NO:53 TRAIL", "result": "−0.26"}, {"measurement": "differential expression, Clone ID 1998269, HCT116 t/Aza (5d)", "setting": "[1]; SEQ ID NO:55 rhoB", "result": "−0.63"}, {"measurement": "differential expression, Clone ID 1919287, HCT116 t/Aza (5d)", "setting": "[1]; SEQ ID NO:56 hepatitis C-associated microtubular aggregate", "result": 0.00}, {"measurement": "differential expression, Clone ID 2637446, HCT116 t/Aza (5d)", "setting": "[1]; SEQ ID NO:57 HE4 protein", "result": "−0.29"}, {"measurement": "differential expression, Clone ID 1962141, HCT116 t/Aza (5d)", "setting": "[1]; SEQ ID NO:58 Similar to keratin 7", "result": "−0.92"}, {"measurement": "differential expression, Clone ID 4933404, HCT116 t/Aza (5d)", "setting": "[1]; SEQ ID NO:60 Incyte Unique", "result": "−2.08"}, {"measurement": "differential expression, Clone ID 2150288, HCT116 t/Aza (5d)", "setting": "[1]; SEQ ID NO:61 Keratin 8", "result": "−0.92"}, {"measurement": "differential expression, Clone ID 2697455, HCT116 t/Aza (5d)", "setting": "[1]; SEQ ID NO:61 Keratin 8", "result": "−1.14"}, {"measurement": "polyp formation", "setting": "[2]", "result": "reduced polyp formation"}]}
